Experimental findings from patent US20050267025A1, “Compositions and methods for treatment of infectious and inflammatory diseases” (priority 2002, published 2005) are described below.

The assay relates to human monocytes. In kind it is cell-based.

As to polymyxin B [reference compound], the “effect on IL-10 promotion when added to yeast rCFP32 or CF from WT and mutant Mtb” value is given as “no effect”.
